Counter-ions that a name gives are not always drawn. Like-named read-outs stand apart in the source and are kept apart here.
Legend:
Format in all cases: physicochemical
[1] = solubility in SGF, FeSSIF, FaSSIF and water
[2] = dynamic vapor sorption (DVS) analysis
Protocol: Dynamic vapor sorption analysis (DVS) was performed on a DVS Intrinsic PLUS (SMS, UK). The sample was placed into a tared sample chamber and automatically weighed. The sample was dried at 40° C. until the dm/dt was less than 0.002% and cooled to 25° C. The instrument parameters were as follows: step time (min)=60 min; sample temperature=25 C; cycle=full cycle; adsorption (% RH)=0, 10, 20, 30, 40, 50, 60, 70, 80, 90; desorption (% RH)=80, 70, 60, 50, 40, 30, 20, 10, 0; saved data rate=5 sec; total flow rate=200 sccm; post experimental flow rate=200 sccm.

[3] = solid form chemical and physical stability
[4] = about 0% to about 80% RH at 25° C.
[5] = about 0% to about 90% RH at 25° C.

salt dissociation in solubility media ([1]; FaSSIF, FeSSIF and water)	solubility ([1]; FaSSIF, read-out: solubility in FaSSIF)	solubility ([1]; FeSSIF, read-out: solubility in FeSSIF)	solubility ([1]; SGF, simulated gastric fluid, read-out: solubility in SGF)	hygroscopicity [2]	DVS reversable total mass change [2, 4]	DVS reversable total mass change [2, 5]	form change after DVS analysis [2]	time chemically and physically stable in the solid form ([3]; 40° C./75% RH)	time chemically and physically stable in the solid form ([3]; 60° C.)	SMILES
dissociate to the free base	0.001 to 0.002 mg/mL	0.02 to 0.03 mg/mL	> 4.1 mg/mL	only slightly hygroscopic	about 0.6 wt. %	about 1.3 wt. %	No form change	at least 10 days	at least 10 days	[2H]C([2H])([2H])CC(=O)c1cnc(NC(=O)C2CC2)cc1Nc1cccc(-c2ncn(C([2H])([2H])[2H])n2)c1OC [Form 1-1, N-(4-((2-methoxy-3-(1-(methyl-d3)-1H-1,2,4-triazol-3-yl)phenyl)amino)-5-(propanoyl-3,3,3-d3)pyridin-2-yl) cyclopropanecarboxamide, methanesulfonic acid salt]
–	–	–	–	–	about 0.9 wt. %	about 1.4 wt. %	No form change	–	–	[2H]C([2H])([2H])CC(=O)c1cnc(NC(=O)C2CC2)cc1Nc1cccc(-c2ncn(C([2H])([2H])[2H])n2)c1OC [Form 5-2, N-(4-((2-methoxy-3-(1-(methyl-d3)-1H-1,2,4-triazol-3-yl)phenyl)amino)-5-(propanoyl-3,3,3-d3)pyridin-2-yl) cyclopropanecarboxamide, sulfuric acid salt]
–	–	–	–	–	about 0.6 wt. %	about 0.7 wt. %	No form change	–	–	[2H]C([2H])([2H])CC(=O)c1cnc(NC(=O)C2CC2)cc1Nc1cccc(-c2ncn(C([2H])([2H])[2H])n2)c1OC [Form 6, N-(4-((2-methoxy-3-(1-(methyl-d3)-1H-1,2,4-triazol-3-yl)phenyl)amino)-5-(propanoyl-3,3,3-d3)pyridin-2-yl) cyclopropanecarboxamide, p-toluenesulfonic acid salt]
